Laboratory results: the supplement of paper PMC10883282
± gives the standard deviation of the averaged measurements.

Tested on: SW1353
Test: relative viability vs DMSO control (72 h) (fraction); higher = more viable cells
Procedure, shortened: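 Percent growth from ATPLite readings, averaged over up to triplicate wells, was used as relative viability. Sarcoma cell lines were seeded into 384-well plates for 80–90% confluence, dosed after 24 h, and kept 72 h at 37 °C, 5% CO2. Data were rescaled to a range where 1 is full and 0 is none.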

| Compound | relative viability (0.00017 µM) | relative viability (0.00051 µM) | relative viability (0.00152 µM) | relative viability (0.00457 µM) | relative viability (0.01372 µM) | relative viability (0.04115 µM) | relative viability (0.1235 µM) | relative viability (0.3704 µM) | relative viability (1.111 µM) | relative viability (3.333 µM) | relative viability (10 µM) |
| --- | --- | --- | --- | --- | --- | --- | --- | --- | --- | --- | --- |
| Cc1ccc(F)c(NC(=O)Nc2ccc(-c3cccc4[nH]nc(N)c34)cc2)c1 [Linifanib] | 1.08 ± 0.035 | 0.998 ± 0.023 | 1.02 ± 0.012 | 1.02 ± 0.015 | 1 ± 0.036 | 1.01 ± 0.057 | 0.982 ± 0.055 | 1.037 ± 0.009 | 1.07 ± 0.018 | 1.07 ± 0.036 | 0.9638 ± 0.0037 |
| C[C@]1(O)C[C@@H](c2nc(-c3ccc4ccc(-c5ccccc5)nc4c3)c3c(N)nccn32)C1 [Linsitinib] | 1.03 ± 0.017 | 1 ± 0.024 | 1.03 ± 0.03 | 0.977 ± 0.024 | 1.03 ± 0.017 | 1.01 ± 0.014 | 0.978 ± 0.041 | 0.967 ± 0.029 | 0.9847 ± 0.0087 | 0.949 ± 0.05 | 0.866 ± 0.024 |
| Cc1ccc(NC(=O)c2ccc(CN3CCN(C)CC3)cc2)cc1Nc1nc(-c2cccnc2)cs1 [Masitinib] | 1.03 ± 0.017 | 0.998 ± 0.012 | 0.986 ± 0.023 | 0.9886 ± 0.0079 | 0.989 ± 0.014 | 1.018 ± 0.0045 | 0.925 ± 0.006 | 0.86 ± 0.049 | 0.755 ± 0.047 | 0.478 ± 0.026 | 0.032 ± 0.0052 |
| CC1(C)CNc2cc(NC(=O)c3cccnc3NCc3ccncc3)ccc21 [Motesanib] | 0.993 ± 0.037 | 1.01 ± 0.013 | 1.02 ± 0.011 | 1 ± 0.018 | 0.997 ± 0.03 | 1.01 ± 0.012 | 0.963 ± 0.031 | 0.964 ± 0.016 | 0.977 ± 0.025 | 0.935 ± 0.023 | 0.898 ± 0.025 |
| CC(C)N1CCN(Cc2cnc(-c3cc(-c4cccc5[nH]ccc45)cc4[nH]ncc34)o2)CC1 [Nemiralisib] | 1.07 ± 0.033 | 0.997 ± 0.044 | 0.992 ± 0.023 | 0.99 ± 0.032 | 0.983 ± 0.02 | 0.965 ± 0.043 | 0.948 ± 0.04 | 0.914 ± 0.025 | 0.85 ± 0.053 | 0.721 ± 0.044 | 0.59 ± 0.067 |
| C=CC(=O)Nc1cccc(Oc2nc(Nc3ccc(N4CCN(C)CC4)cc3)nc3ccsc23)c1 [Olmutinib] | 1.03 ± 0.048 | 1.06 ± 0.059 | 1.04 ± 0.013 | 1.04 ± 0.048 | 1.03 ± 0.038 | 1.02 ± 0.03 | 0.997 ± 0.031 | 0.95 ± 0.086 | 0.857 ± 0.021 | 0.755 ± 0.012 | 0.104 ± 0.0062 |
| CC(C)(C)c1cc(NC(=O)Nc2ccc(-c3cn4c(n3)sc3cc(OCCN5CCOCC5)ccc34)cc2)no1 [Quizartinib] | 1.02 ± 0.03 | 1.02 ± 0.047 | 1.02 ± 0.057 | 1.03 ± 0.047 | 1.01 ± 0.059 | 1.03 ± 0.043 | 1.02 ± 0.046 | 1.01 ± 0.031 | 0.965 ± 0.044 | 0.874 ± 0.02 | 0.981 ± 0.035 |
| CNC(=O)c1cc(Oc2ccc(NC(=O)Nc3ccc(Cl)c(C(F)(F)F)c3)c(F)c2)ccn1 [Regorafenib] | 1.11 ± 0.029 | 1.05 ± 0.05 | 1.07 ± 0.017 | 1.08 ± 0.021 | 1.04 ± 0.096 | 1.01 ± 0.043 | 1.08 ± 0.044 | 0.996 ± 0.07 | 0.978 ± 0.047 | 0.919 ± 0.036 | 0.555 ± 0.02 |
| CO[C@H]1C[C@@H]2CC[C@@H](C)[C@@](O)(O2)C(=O)C(=O)N2CCCC[C@H]2C(=O)O[C@H]([C@H](C)C[C@@H]2CC[C@@H](OP(C)(C)=O)[C@H](OC)C2)CC(=O)[C@H](C)/C=C(\C)[C@@H](O)[C@@H](OC)C(=O)[C@H](C)C[C@H](C)/C=C/C=C/C=C/1C [Ridaforolimus] | 0.961 ± 0.028 | 0.905 ± 0.041 | 0.805 ± 0.012 | 0.771 ± 0.011 | 0.747 ± 0.029 | 0.742 ± 0.033 | 0.723 ± 0.016 | 0.72 ± 0.035 | 0.702 ± 0.012 | 0.707 ± 0.012 | 0.682 ± 0.023 |
